The source of these data is PMC7893915, “Assessing cross-resistance within the pyrethroids in terms of their interactions with key cytochrome P450 enzymes and resistance in vector populations” (Parasites & Vectors, 2021).

Structures are written as SMILES.

In this test the target is T1, CYP6Z3 (Anopheles gambiae, UniProt Q86LT6, H411Y/S209G/W396L).
T1 sequence (Q86LT6 1-492 S209G/W396L/H411Y): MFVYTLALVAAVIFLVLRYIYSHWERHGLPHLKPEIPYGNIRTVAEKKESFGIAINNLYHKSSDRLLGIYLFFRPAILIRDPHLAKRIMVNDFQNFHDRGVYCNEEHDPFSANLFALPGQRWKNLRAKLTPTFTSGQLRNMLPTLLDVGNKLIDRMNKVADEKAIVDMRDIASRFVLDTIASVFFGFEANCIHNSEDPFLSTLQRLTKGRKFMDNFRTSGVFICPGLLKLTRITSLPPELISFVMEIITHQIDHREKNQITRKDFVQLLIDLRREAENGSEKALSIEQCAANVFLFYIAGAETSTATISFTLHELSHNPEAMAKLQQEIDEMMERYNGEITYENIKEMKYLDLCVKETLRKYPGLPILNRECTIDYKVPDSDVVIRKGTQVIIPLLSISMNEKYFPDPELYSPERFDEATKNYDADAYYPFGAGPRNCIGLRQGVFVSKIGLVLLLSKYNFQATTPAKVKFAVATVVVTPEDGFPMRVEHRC
T1 sequence (Q86QH5 1-679 partner): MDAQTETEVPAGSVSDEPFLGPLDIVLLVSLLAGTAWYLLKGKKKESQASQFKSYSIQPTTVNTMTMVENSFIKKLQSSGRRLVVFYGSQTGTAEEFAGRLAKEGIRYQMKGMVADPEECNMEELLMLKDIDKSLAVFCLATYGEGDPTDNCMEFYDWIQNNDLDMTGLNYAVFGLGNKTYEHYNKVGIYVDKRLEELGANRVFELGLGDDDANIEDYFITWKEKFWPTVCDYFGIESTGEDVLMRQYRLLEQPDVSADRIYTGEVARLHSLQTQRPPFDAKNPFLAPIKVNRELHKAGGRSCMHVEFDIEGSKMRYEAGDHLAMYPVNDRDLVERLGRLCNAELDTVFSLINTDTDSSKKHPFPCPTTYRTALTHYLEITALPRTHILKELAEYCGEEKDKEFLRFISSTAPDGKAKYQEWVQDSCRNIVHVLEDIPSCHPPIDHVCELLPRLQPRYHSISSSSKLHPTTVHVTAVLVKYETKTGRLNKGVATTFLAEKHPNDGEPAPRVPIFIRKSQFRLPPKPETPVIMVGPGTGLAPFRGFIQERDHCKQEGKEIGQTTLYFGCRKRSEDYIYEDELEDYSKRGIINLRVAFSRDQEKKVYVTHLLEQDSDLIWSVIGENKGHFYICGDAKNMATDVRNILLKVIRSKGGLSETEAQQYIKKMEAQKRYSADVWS
Put plainly: Inhibition screening of pyrethroids, diethoxyfluorescein, CYP6Z3. The class given is biochemical. The source says: Cytochrome P450 inhibition assays using fluorogenic probe substrates have become commonplace in drug discovery screening cascades and are a rapid method of screening for insecticide interactions with mosquito P450s to predict insecticide binding, metabolism, cross-resistance and synergism. In this study, the half maximal inhibitory concentration (IC50), which provides a value for inhibition of each P450 by each pyrethroid (also referred to as ‘binding affinity’), and the percentage depletion, which gives a value for metabolism of each pyrethroid by each P450 (also referred to as vulnerability to metabolic attack), were both included as parameters to establish a P450s structural activity relationship model. This model was used to understand both the chemistry of the pyrethroids and the interaction with mosquito P450s that function as monooxygenases in metabolic resistance, to predict cross-resistance liabilities in vivo. […] A low percentage depletion indicates low metabolism of the pyrethroid, which means that it may be less vulnerable to resistance mediated by P450s.
In addition, inhibition activity data for these pyrethroids exposed to CYP6Z3 from the An. gambiae Kisumu strain were also generated (Additional file 1).
1. Preparation of An. gambiae CYP6Z3 and cloning
Total RNA was extracted with Arcturus PicoPure Kit (Applied Biosystems, USA) from ten adult An. gambiae mosquitoes from the Kisumu strain [1]. Complementary DNA was prepared using Superscript III (Invitrogen) with an oligo (dT)20 primer and used as a template for amplifying full -length AgCyp6z3 with KOD DNA polymerase (Merk Chemicals) . The gene-specific primers used in these high -fidelity PCRs (Table S1) were designed according to the reference An. gambiae PEST CYP6Z3 genome sequence (Accession number AY193727) The PCR product was ligated into pGEM T-easy vector (Promega) and sequenced on both strands. Consistent with the high frequency of polymorphism in An. gambiae P450s [2](Martin Nature Ref) there were 36 single nucleotide polymorphism (SNPs) compared with the reference sequence, of which three produced amino acid changes, S209G, W396L, and H411Y. For expression, the ompA leader sequence (ompA) was engineered onto the amino - terminus of the AgCyp6z3 gene to direct the P450 into the E. coli […] during expression as previously described. The ompA-leader was fused to AgCyp6z3 cDNA in frame with AgCyp6z3 initiation codon by fusion PCR using High fidelity Phusion polymerase (Scientific). The ompA AgCyp6z3 fusion was flanked at the 5′ and 3′ ends with NdeI and EcoR1, respectively for ligation into NdeI/EcoRI linearised pB13 (pCWori+).
Table S1. Primers used for amplification of CYP6Z3 and in vitro functional characterisation […]
ompA+2 Forward […]
ompA+2 CYP6Z3 fusion […]
2. Preparation of membranes expressing P450 and AgCPR
To express functional P450, AgCyp6z3 cloned into pB13 plasmid was co-transformed into E. coli JM109 cells with An. gambiae NADPH-cytochrome P450 reductase (AgCPR-pACYC). The P450 and the AgCPR were previously fused with ompA and pelB leader sequences respectively to direct the expressed proteins to the inner bacterial periplasm in order to form functional monooxygenase complex. For P450 production, 200 mL E. coli cultures in Terrific Broth were incubated at 21°C with shaking at 120 RPM for 18–24 h after induction with 1 mM IPTG. Following expression, E. coli membranes containing CYP6Z3 were isolated and P450 and AgCPR content measured as previously described. Samples were stored in aliquots of 100 µL at −80°C. An. gambiae cytochrome b5 was prepared as described previously to supplement enzyme reactions at an 8:1 M ratio, b5: P450 [4].
3. Inhibition screening of pyrethroids.
Inhibition screening of pyrethroid inhibitors and IC50 calculations carried out according Yunta et al. […]

Broadly, the IC50 is the midpoint of a concentration-inhibition curve.

In the case of `Cc1c(COC(=O)[C@@H]2[C@H](/C=C(\Cl)C(F)(F)F)C2(C)C)cccc1-c1ccccc1` (racemic) [Bifenthrin, bifenthrin], the concentration for half-maximal inhibition (IC50) amounted to 17 µM.
The figure for `CC1(C)[C@H](C(=O)O[C@H](C#N)c2cccc(Oc3ccccc3)c2)[C@@H]1/C=C(\Cl)C(F)(F)F` (racemic) [λ-Cyhalothrin, λ-cyhalothrin] is 3.3 µM; for `CC1(C)[C@H](C(=O)O[C@H](C#N)c2cccc(Oc3ccccc3)c2)[C@@H]1C=C(Br)Br` [Deltamethrin, deltamethrin] it is 3.4 µM; for `CCOc1ccc(C(C)(C)COCc2cccc(Oc3ccccc3)c2)cc1` [Etofenprox, etofenprox] it is 4.8 µM.
The figure for `CC1(C)C(C=C(Cl)Cl)C1C(=O)OCc1cccc(Oc2ccccc2)c1` (centres unmarked) [Permethrin, permethrin] is 3.7 µM.
